Format in all cases: cell-based
The target of one test is T1, PrRPR P142A (Homo sapiens, UniProt P49683, P142A).
T1 construct: expressed in transfected cells; host or cells: AD293 cells
Put plainly: BRET2 Gi dissociation, P142A. The following applies: P142A (3.33), Gi-coupling, AD293 cells; mean ± S.E.M., n = 3; P 0.0035 vs WT; read-out: BRET2 pEC50 (converted). The method, then: (§1) AD293 cells (Agilent) were propagated in Dulbecco’s Modified Eagle Medium (DMEM, Thermo Fisher Scientific), enriched with 10% fetal bovine serum (FBS, Thermo Fisher Scientific), and maintained at 37 °C in a 5% CO2 environment. Cells were then seeded in 6-well dishes at a density of 130,000–150,000 cells per mL and allowed to incubate overnight. On the next day, cells were transfected with plasmids at a 1:1:1:1 ratio for receptor:Gα-RLuc8:Gβ:Gγ-GFP2[52]. PEI MAX 40 K (BIOHUB) was utilized to form complex with the plasmids at a ratio of 3 µL PEI per µg of plasmids, in OptiMEM (Gibco-Thermo Fisher Scientific) at a concentration of 10 ng plasmids per µL OptiMEM. After 24 h of incubation, the culture was harvested by centrifugation with PBS. The cell suspension was then allocated into a white 384-well plate at a volume of 30 µL per well, followed by the addition of 10 µL of freshly prepared 50 µM coelenterazine 400a (Yeasen). Following a 15-min equilibration period, cells were treated with 10 µL of ligand for an additional 5 min. Plates were subsequently read in a BioTek Synergy H1 microplate reader (BioTek) equipped with 395 nm (RLuc8-coelenterazine 400a) and 510 nm (GFP2) emission filters. BRET2 ratios were calculated as the ratio of the GFP2 emission to RLuc8 emission. Data were normalized to the baseline response of the ligand. […]
(BRET reads energy transfer from a luciferase to a nearby fluorophore.)

Another test deals with T2, PrRPR W127A (Homo sapiens, UniProt P49683, W127A).
T2 construct: expressed in transfected cells; host or cells: AD293 cells
Nature of the test: BRET2 Gi dissociation, W127A. The following applies: W127A (23.50), Gi-coupling, AD293 cells; mean ± S.E.M., n = 3; P <0.0001 vs WT; read-out: BRET2 pEC50 (converted). As for the experimental part: as §1

For the next test, the target named is T3, PrRPR Q317A (Homo sapiens, UniProt P49683, Q317A).
T3 construct: Flag; expressed in transfected cells; host or cells: AD293 cells
Nature of the test: BRET2 Gq dissociation, Q317A. The following applies: Q317A (7.35), Gq-coupling, AD293 cells; mean ± S.E.M., n = 3; P <0.0001 vs WT; read-out: BRET2 pEC50 (converted). As for the experimental part:
as §1, with “Following a 15-min equilibration period, cells were treated with 10 µL of ligand for an additional 5 min.” left out, “emission.” for “emission. Data were normalized to the baseline response of the ligand.”
(§2) Supplementary Fig. S4 | Effects of mutations in the ligand-binding pocket and G protein intereface of Gq coupled PrRPR by BRET2 assay. […] BRET2 assay signals were measured after stimulation with PrRP20. […]

Test [1] addresses T4, PrRPR N298A (Homo sapiens, UniProt P49683, N298A).
T4 construct: Flag; expressed in transfected cells; host or cells: AD293 cells
Put plainly: BRET2 Gq dissociation, N298A. The following applies: N298A (6.55), Gq-coupling, AD293 cells; mean ± S.E.M., n = 3; P 0.0042 vs WT; read-out: BRET2 pEC50 (converted). As for the experimental part: as §1, with “Following a 15-min equilibration period, cells were treated with 10 µL of ligand for an additional 5 min.” left out, “emission.” for “emission. Data were normalized to the baseline response of the ligand.”
as §2

The target in test [2] is T5, PrRPR WT (Homo sapiens, UniProt P49683).
T5 construct: expressed in transfected cells; host or cells: AD293 cells
T5 sequence (P49683 1-370): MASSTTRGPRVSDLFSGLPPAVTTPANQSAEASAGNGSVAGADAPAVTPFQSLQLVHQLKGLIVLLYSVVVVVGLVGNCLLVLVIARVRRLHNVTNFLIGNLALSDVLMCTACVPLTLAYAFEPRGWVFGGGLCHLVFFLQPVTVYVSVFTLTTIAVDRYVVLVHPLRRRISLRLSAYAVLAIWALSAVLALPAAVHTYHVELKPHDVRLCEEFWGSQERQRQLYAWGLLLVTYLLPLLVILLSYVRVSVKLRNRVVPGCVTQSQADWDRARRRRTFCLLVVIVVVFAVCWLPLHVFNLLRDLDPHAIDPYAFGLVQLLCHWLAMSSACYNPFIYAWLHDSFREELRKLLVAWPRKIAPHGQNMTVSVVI
Nature of the test: BRET2 Gq dissociation, WT. The settings on record: WT (reference for normalisation), Gq-coupling, AD293 cells; n = 3. As for the experimental part: as §1, with “Following a 15-min equilibration period, cells were treated with 10 µL of ligand for an additional 5 min.” left out, “emission.” for “emission. Data were normalized to the baseline response of the ligand.”
as §2

Test [3] has as its target T5, PrRPR WT. Nature of the test: BRET2 Gi dissociation, WT. The following applies: Gi-coupling, AD293 cells. As for the experimental part: as §1
The next test has as its target T6, PrRPR F313A (Homo sapiens, UniProt P49683, F313A).
T6 construct: Flag; expressed in transfected cells; host or cells: AD293 cells
Put plainly: BRET2 Gi dissociation, F313A. The following applies: F313A (7.31), Gi-coupling, AD293 cells; mean ± S.E.M., n = 3; P <0.0001 vs WT; read-out: BRET2 pEC50 (converted). The method, then: as §1

The target in test [4] is T7, PrRPR Q141A (Homo sapiens, UniProt P49683, Q141A).
T7 construct: expressed in transfected cells; host or cells: AD293 cells
Put plainly: BRET2 Gi dissociation, Q141A. The settings on record: Q141A (3.32), Gi-coupling, AD293 cells; mean ± S.E.M., n = 3; P 0.0002 vs WT; read-out: BRET2 pEC50 (converted). As for the experimental part: as §1

In the next test the target is T8, PrRPR H295A (Homo sapiens, UniProt P49683, H295A).
T8 construct: Flag; expressed in transfected cells; host or cells: AD293 cells
Put plainly: BRET2 Gq dissociation, H295A. The following applies: H295A (6.52), Gq-coupling, AD293 cells; mean ± S.E.M., n = 3; P <0.0001 vs WT; read-out: BRET2 pEC50 (converted). The method, then: as §1, with “Following a 15-min equilibration period, cells were treated with 10 µL of ligand for an additional 5 min.” left out, “emission.” for “emission. Data were normalized to the baseline response of the ligand.”
as §2

For test [5], the target named is T7, PrRPR Q141A. Put plainly: BRET2 Gq dissociation, Q141A. The following applies: Q141A (3.32), Gq-coupling, AD293 cells; mean ± S.E.M., n = 3; P 0.0059 vs WT; read-out: BRET2 pEC50 (converted). As for the experimental part:
as §1, with “Following a 15-min equilibration period, cells were treated with 10 µL of ligand for an additional 5 min.” left out, “emission.” for “emission. Data were normalized to the baseline response of the ligand.”
as §2

Test [6] deals with T4, PrRPR N298A. Nature of the test: BRET2 Gi dissociation, N298A. The following applies: N298A (6.55), Gi-coupling, AD293 cells; mean ± S.E.M., n = 3; P 0.0022 vs WT; read-out: BRET2 pEC50 (converted). As for the experimental part: as §1

Peptide text beside a SMILES is read from it.

T4 sequence (P49683 whole entry N298A): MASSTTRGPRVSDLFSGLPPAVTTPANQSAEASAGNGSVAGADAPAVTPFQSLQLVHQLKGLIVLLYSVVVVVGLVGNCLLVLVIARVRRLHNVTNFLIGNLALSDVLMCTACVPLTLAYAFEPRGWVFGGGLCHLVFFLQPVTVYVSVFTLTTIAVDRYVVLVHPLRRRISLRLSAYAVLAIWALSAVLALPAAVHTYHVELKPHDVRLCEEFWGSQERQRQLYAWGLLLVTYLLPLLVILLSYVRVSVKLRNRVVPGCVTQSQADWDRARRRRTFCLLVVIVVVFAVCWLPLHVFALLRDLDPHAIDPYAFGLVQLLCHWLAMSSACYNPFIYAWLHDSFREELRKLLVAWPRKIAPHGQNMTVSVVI
T7 sequence (P49683 whole entry Q141A): as the sequence (P49683 whole entry N298A) above, with Q141A, A298N counted along it
T2 sequence (P49683 whole entry W127A): as the sequence (P49683 whole entry N298A) above, with W127A, A298N counted along it
T1 sequence (P49683 whole entry P142A): as the sequence (P49683 whole entry N298A) above, with P142A, A298N counted along it
T6 sequence (P49683 whole entry F313A): as the sequence (P49683 whole entry N298A) above, with A298N, F313A counted along it
T3 sequence (P49683 whole entry Q317A): as the sequence (P49683 whole entry N298A) above, with A298N, Q317A counted along it
T8 sequence (P49683 whole entry H295A): as the sequence (P49683 whole entry N298A) above, with H295A, A298N counted along it

For the compound `CC[C@H](C)[C@H](NC(=O)CNC(=O)[C@H](CCCNC(=N)N)NC(=O)[C@H](CO)NC(=O)[C@H](C)NC(=O)[C@H](Cc1ccc(O)cc1)NC(=O)[C@H](Cc1c[nH]c2ccccc12)NC(=O)[C@H](C)NC(=O)[C@@H]1CCCN1C(=O)[C@H](CC(N)=O)NC(=O)[C@@H](NC(=O)[C@H](CC(=O)O)NC(=O)[C@@H]1CCCN1C(=O)[C@@H](N)[C@@H](C)O)[C@@H](C)CC)C(=O)N[C@@H](CCCNC(=N)N)C(=O)N1CCC[C@H]1C(=O)N[C@H](C(=O)NCC(=O)N[C@@H](CCCNC(=N)N)C(=O)N[C@@H](Cc1ccccc1)C(N)=O)C(C)C` [PrRP20] (H-TPDINPAWYASRGIRPVGRF-NH2), the EC50 on PrRPR P142A was 6.46 nM; on PrRPR W127A, 490 nM; at PrRPR Q317A, 309 nM; at PrRPR N298A [1], 2.95 nM; on PrRPR WT [3] (WT, 5 min ligand, mean ± S.E.M., n = 3 (triplicates), read-out: BRET2 pEC50 (converted)), 1.86 nM; at PrRPR F313A, 14.8 nM. In addition, the EC50 at PrRPR Q141A [4] was 7.59 nM; at PrRPR H295A, 4.79 nM; at PrRPR Q141A [5], 3.02 nM; on PrRPR N298A [6] it was 6.31 nM. For the same compound, the BRET2 span at PrRPR WT [2] is 100.00 %WT; at PrRPR WT [3] (WT (reference for normalisation), n = 3), 100.00 %WT.

Source of the values: article PMC11369081, “Molecular mechanism of prolactin-releasing peptide recognition and signaling via its G protein-coupled receptor” (Cell Discovery, 2024).
